The text below walks through data of patent US11274283B2 (priority 2014, dated 2022).

For assay [1], the system named is Ralstonia solanacearum tyrosinase. It is filed as biochemical. The settings on record: up to 400 mM.
Assay [2] relates to mushroom tyrosinase. The settings on record: at 5 mM; scientific literature; cited from earlier work.
The test system of assay [3] is mushroom tyrosinase. In words: Inhibition of mushroom tyrosinase. It is filed as biochemical. The settings on record: cannot complete the reaction.

As to `O=C1O[C@H]([C@@H](O)CO)C([O-])=C1O.[Na+]` [ascorbic acid sodium salt], the “inhibition of Ralstonia solanacearum tyrosinase activity” value in assay [1] is listed as “No inhibition”. On to `O=C1O[C@H]([C@@H](O)CO)C(O)=C1O` [ascorbic acid], for which the “inhibition of mushroom tyrosinase” value in the assay on mushroom tyrosinase [2] is listed as “inhibition”. Regarding `OCCc1ccc(O)cc1` [tyrosol, 4-(2-hydroxyethyl)phenol], in the assay with mushroom tyrosinase [3], the “tyrosol concentration above which commercial mushroom tyrosinase is inhibited” value was “above 10 g/l”.
